The assay has as its target T1, ALK (Homo sapiens, UniProt Q9UM73).
T1 construct: purchased Millipore
Kind of assay: ALK kinase assay (HTRF_ALK). In kind it is biochemical. Conditions: apparent Ki converted from IC50 by the Cheng-Prusoff relationship; ALK (Millipore), 50 μM ATP, 1 h at room temperature.

Molecules are shown by their SMILES.

T1 sequence (Q9UM73 19-1620): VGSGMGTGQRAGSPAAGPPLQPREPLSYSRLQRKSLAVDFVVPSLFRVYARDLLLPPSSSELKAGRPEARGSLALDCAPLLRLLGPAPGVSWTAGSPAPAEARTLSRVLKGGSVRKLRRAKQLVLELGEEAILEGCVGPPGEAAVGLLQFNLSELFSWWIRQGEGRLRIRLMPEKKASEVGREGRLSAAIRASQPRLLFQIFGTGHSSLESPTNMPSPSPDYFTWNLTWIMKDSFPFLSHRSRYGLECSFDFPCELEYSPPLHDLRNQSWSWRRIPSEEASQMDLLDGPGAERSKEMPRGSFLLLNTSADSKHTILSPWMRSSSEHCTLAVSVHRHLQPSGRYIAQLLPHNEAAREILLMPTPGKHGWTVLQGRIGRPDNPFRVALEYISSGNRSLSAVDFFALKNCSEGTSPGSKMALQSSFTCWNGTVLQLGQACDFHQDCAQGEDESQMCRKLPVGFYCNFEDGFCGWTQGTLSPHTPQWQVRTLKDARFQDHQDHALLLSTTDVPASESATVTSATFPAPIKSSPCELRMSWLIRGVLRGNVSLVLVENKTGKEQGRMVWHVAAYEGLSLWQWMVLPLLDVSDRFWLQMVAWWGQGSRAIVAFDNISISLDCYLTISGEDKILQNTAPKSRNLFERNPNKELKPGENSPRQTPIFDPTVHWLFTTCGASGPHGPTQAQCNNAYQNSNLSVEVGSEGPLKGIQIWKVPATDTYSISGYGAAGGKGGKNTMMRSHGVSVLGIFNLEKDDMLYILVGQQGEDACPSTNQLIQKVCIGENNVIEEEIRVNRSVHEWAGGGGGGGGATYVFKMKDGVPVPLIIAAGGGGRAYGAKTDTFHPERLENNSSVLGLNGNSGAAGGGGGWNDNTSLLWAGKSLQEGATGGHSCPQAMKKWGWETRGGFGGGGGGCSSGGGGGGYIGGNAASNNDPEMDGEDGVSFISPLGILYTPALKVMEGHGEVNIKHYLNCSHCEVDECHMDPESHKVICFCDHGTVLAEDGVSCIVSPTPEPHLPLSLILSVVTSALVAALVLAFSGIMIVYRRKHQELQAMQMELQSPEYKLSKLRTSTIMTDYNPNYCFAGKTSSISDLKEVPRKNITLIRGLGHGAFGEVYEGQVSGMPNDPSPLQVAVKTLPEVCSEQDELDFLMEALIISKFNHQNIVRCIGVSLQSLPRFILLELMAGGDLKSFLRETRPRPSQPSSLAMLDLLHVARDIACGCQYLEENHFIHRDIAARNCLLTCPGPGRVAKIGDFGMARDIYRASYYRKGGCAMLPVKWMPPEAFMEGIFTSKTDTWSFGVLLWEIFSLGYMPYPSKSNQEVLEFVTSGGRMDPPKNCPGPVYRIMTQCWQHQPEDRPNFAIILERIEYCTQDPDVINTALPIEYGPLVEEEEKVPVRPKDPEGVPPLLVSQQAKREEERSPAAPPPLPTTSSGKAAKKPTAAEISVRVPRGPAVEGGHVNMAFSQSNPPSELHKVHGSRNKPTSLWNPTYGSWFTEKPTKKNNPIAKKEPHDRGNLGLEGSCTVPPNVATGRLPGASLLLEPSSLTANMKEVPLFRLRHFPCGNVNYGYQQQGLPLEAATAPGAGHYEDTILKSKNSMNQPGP

As for `COc1cc(N2CCN(C)CC2)ccc1Nc1cc(Cc2c(Cl)cccc2Cl)nc2cc[nH]c(=O)c12` [Example 1, 2-(2,6-dichlorobenzyl)-4-{[2-methoxy-4-(4-methylpiperazin-1-yl)phenyl]amino}-1,6-naphthyridin-5 (6H)-one], the Ki stood at 8 nM.

On to `COc1cc(N2CCNCC2)ccc1Nc1cc(Cc2c(Cl)cccc2Cl)nc2cc[nH]c(=O)c12` [Example 2, 2-(2,6-dichlorobenzyl)-4-{[2-methoxy-4-(piperazin-1-yl)phenyl]amino}-1,6-naphthyridin-5(6H)-one], for which the Ki is 4 nM.

As for `O=c1[nH]ccc2nc(Cc3c(Cl)cccc3Cl)cc(Nc3ccc(N4CCNCC4)cc3)c12` [Example 3, 2-(2,6-dichlorobenzyl)-4-{[4-(piperazin-1-yl)phenyl]amino}-1,6-naphthyridin-5(6H)-one], the Ki worked out at 72 nM.

Take `COc1cc(N2CCN(C)CC2)ccc1Nc1nc(Cc2c(Cl)cccc2Cl)cc2cc[nH]c(=O)c12` [Example 4, 6-(2,6-dichlorobenzyl)-8-{[2-methoxy-4-(4-methylpiperazin-1-yl)phenyl]amino}-2,7-naphthyridin-1(2H)-one]: the Ki was determined as 64 nM.

In the case of `COc1cc(N2CCN(C)CC2)ccc1Nc1nc(Cc2c(Cl)cccc2Cl)cc2nc[nH]c(=O)c12` [Example 5, 7-(2,6-dichlorobenzyl)-5-{[2-methoxy-4-(4-methylpiperazin-1-yl)phenyl]amino}pyrido[4,3-d]pyrimidin-4(3H)-one], the Ki was determined as 7 nM.

As for `COc1cc(N2CCNCC2)ccc1Nc1nc(Cc2c(Cl)cccc2Cl)cc2nc[nH]c(=O)c12` [Example 6, 7-(2,6-dichlorobenzyl)-5-{[2-methoxy-4-(piperazin-1-yl)phenyl]amino}pyrido[4,3-d]pyrimidin-4(3H)-one], the Ki was found to be 6 nM.

As to `O=c1[nH]cnc2cc(Cc3c(Cl)cccc3Cl)nc(Nc3ccc(N4CCNCC4)cc3)c12` [Example 7, 7-(2,6-dichlorobenzyl)-5-{[4-(piperazin-1-yl)phenyl]amino}pyrido[4,3-d]pyrimidin-4(3H)-one], the Ki turned out to be 10 nM.

For the compound `COc1cc(N2CCNCC2)ccc1Nc1nc(Cc2c(Cl)cccc2Cl)cc2cc[nH]c(=O)c12` [Example 8, 6-(2,6-dichlorobenzyl)-8-{[2-methoxy-4-(piperazin-1-yl)phenyl]amino}-2,7-naphthyridin-1(2H)-one], the Ki came to 3 nM.

In the case of `O=c1[nH]ccc2cc(Cc3c(Cl)cccc3Cl)nc(Nc3ccc(N4CCNCC4)cc3)c12` [Example 9, 6-(2,6-dichlorobenzyl)-8-{[4-(piperazin-1-yl)phenyl]amino}-2,7-naphthyridin-1(2H)-one], the Ki was determined as 14 nM.

As for `COc1cc(N2CCC(N(C)C)CC2)ccc1Nc1nc(Cc2c(Cl)cccc2Cl)cc2cc[nH]c(=O)c12` [Example 10, 6-(2,6-dichlorobenzyl)-8-({4-[4-(dimethylamino)piperidin-1-yl]-2-methoxyphenyl}amino)-2,7-naphthyridin-1(2H)-one], the Ki was found to be 180 nM.

Regarding `COc1cc(N2CCNCC2)ccc1Nc1cc(Cc2c(Cl)cccc2Cl)nc2nc[nH]c(=O)c12` [Example 11, 7-(2,6-dichlorobenzyl)-5-{[2-methoxy-4-(piperazin-1-yl)phenyl]amino}pyrido[2,3-d]pyrimidin-4(3H)-one], the Ki worked out at 70 nM.

On to `COc1cc(N2CCNCC2)ccc1Nc1nc(Cc2c(Cl)cccc2Cl)nc2nc[nH]c(=O)c12` [Example 12, 7-(2,6-dichlorobenzyl)-5-{[2-methoxy-4-(piperazin-1-yl)phenyl]amino}pyrimido[4,5-d]pyrimidin-4(3H)-one], for which the Ki worked out at 13 nM.

With `O=c1[nH]ccc2nc(Cc3c(Cl)cccc3Cl)cc(Nc3ccc(N4CCNCC4)c(F)c3)c12` [Example 13, 2-(2,6-dichlorobenzyl)-4-(3-fluoro-4-(piperazin-1-yl)phenylamino)-1,6-naphthyridin-5(6H)-one], the Ki came out at 3 nM.

Take `COc1cc(N2CCNCC2)ccc1Nc1nc(Cc2c(Cl)cccc2Cl)nc2cc[nH]c(=O)c12` [Example 14, 2-(2,6-dichlorobenzyl)-4-{[2-methoxy-4-(piperazin-1-yl)phenyl]amino}pyrido[4,3-d]pyrimidin-5(6H)-one]: the Ki was 84 nM.

In the case of `O=c1[nH]ccc2nc(Cc3c(Cl)cccc3Cl)nc(Nc3ccc(N4CCNCC4)cc3)c12` [Example 15, 2-(2,6-dichlorobenzyl)-4-{[4-(piperazin-1-yl)phenyl]amino}pyrido[4,3-d]pyrimidin-5(6H)-one], the Ki worked out at 1450 nM.

Turning to `O=c1[nH]ccc2cc(Cc3c(F)cccc3Cl)nc(Nc3ccc(N4CCNCC4)cc3)c12` [Example 16, 6-(2-chloro-6-fluorobenzyl)-8-{[4-(piperazin-1-yl)phenyl]amino}-2,7-naphthyridin-1(2H)-one], the Ki was 480 nM.

`COc1cc(C(=O)N2CCN(C)CC2)ccc1Nc1nc(Cc2c(Cl)cccc2Cl)cc2cc[nH]c(=O)c12` [Example 17, 6-(2,6-dichlorobenzyl)-8-({2-methoxy-4-[(4-methylpiperazin-1-yl)carbonyl]phenyl}amino)-2,7-naphthyridin-1(2H)-one]: the Ki was > 1000 nM.

In the case of `COc1cc(C(=O)NCCCN2CCOCC2)ccc1Nc1cc(Cc2c(Cl)cccc2Cl)nc2cc[nH]c(=O)c12` [Example 18, 4-{[2-(2,6-dichlorobenzyl)-5-oxo-5,6-dihydro-1,6-naphthyridin-4-yl]amino}-3-methoxy-N-[3-(morpholin-4-yl)propyl]benzamide], the Ki stood at 51 nM.

`COc1cc(C(=O)NCCCN2CCOCC2)ccc1Nc1nc(Cc2c(Cl)cccc2Cl)cc2cc[nH]c(=O)c12` [Example 19, 4-{[3-(2,6-dichlorobenzyl)-8-oxo-7,8-dihydro-2,7-naphthyridin-1-yl]amino}-3-methoxy-N-[3-(morpholin-4-yl)propyl]benzamide]: the Ki turned out to be 25 nM.

As for `COc1cc(C(=O)N2CCN(C)CC2)ccc1Nc1cc(Cc2c(Cl)cccc2Cl)nc2cc[nH]c(=O)c12` [Example 20, 2-(2,6-dichlorobenzyl)-4-({2-methoxy-4-[(4-methylpiperazin-1-yl)carbonyl]phenyl}amino)-1,6-naphthyridin-5(6H)-one], the Ki was determined as 51 nM.

`COc1cc(C(=O)NCCN2CCCC2)ccc1Nc1cc(Cc2c(Cl)cccc2Cl)nc2cc[nH]c(=O)c12` [Example 21, 4-{[2-(2,6-dichlorobenzyl)-5-oxo-5,6-dihydro-1,6-naphthyridin-4-yl]amino}-3-methoxy-N-[2-(pyrrolidin-1-yl)ethyl]benzamide]: the Ki stood at 25 nM.

For `COc1cc(C(=O)NCCN2CCCC2)ccc1Nc1nc(Cc2c(Cl)cccc2Cl)cc2cc[nH]c(=O)c12` [Example 22, 4-{[3-(2,6-dichlorobenzyl)-8-oxo-7,8-dihydro-2,7-naphthyridin-1-yl]amino}-3-methoxy-N-[2-(pyrrolidin-1-yl)ethyl]benzamide], the Ki came out at 54 nM.

With `COc1cc(C(=O)NCCN(C)C)ccc1Nc1cc(Cc2c(Cl)cccc2Cl)nc2cc[nH]c(=O)c12` [Example 23, 4-{[2-(2,6-dichlorobenzyl)-5-oxo-5,6-dihydro-1,6-naphthyridin-4-yl]amino}-N-[2-(dimethylamino)ethyl]-3-methoxybenzamide], the Ki is 12 nM.

As for `COc1cc(C(=O)NCCN2CCCCC2)ccc1Nc1cc(Cc2c(Cl)cccc2Cl)nc2cc[nH]c(=O)c12` [Example 24, 4-{[2-(2,6-dichlorobenzyl)-5-oxo-5,6-dihydro-1,6-naphthyridin-4-yl]amino}-3-methoxy-N-[2-(piperidin-1-yl)ethyl]benzamide], the Ki stood at 8 nM.

Regarding `COc1cc(C(=O)NCCN2CCN(C)CC2)ccc1Nc1cc(Cc2c(Cl)cccc2Cl)nc2cc[nH]c(=O)c12` [Example 25, 4-{[2-(2,6-dichlorobenzyl)-5-oxo-5,6-dihydro-1,6-naphthyridin-4-yl]amino}-3-methoxy-N-[2-(4-methylpiperazin-1-yl)ethyl]benzamide], the Ki was 22 nM.

As to `COc1cc(C(=O)NCCN2CCN(C)CC2)ccc1Nc1nc(Cc2c(Cl)cccc2Cl)cc2cc[nH]c(=O)c12` [Example 26, 4-{[3-(2,6-dichlorobenzyl)-8-oxo-7,8-dihydro-2,7-naphthyridin-1-yl]amino}-3-methoxy-N-[2-(4-methylpiperazin-1-yl)ethyl]benzamide], the Ki turned out to be 212 nM.

As for `COc1cc(C(=O)NCCN2CCCCC2)ccc1Nc1nc(Cc2c(Cl)cccc2Cl)cc2cc[nH]c(=O)c12` [Example 27, 4-{[3-(2,6-dichlorobenzyl)-8-oxo-7,8-dihydro-2,7-naphthyridin-1-yl]amino}-3-methoxy-N-[2-(piperidin-1-yl)ethyl]benzamide], the Ki was 17 nM.

On to `COc1cc(C(=O)NCCCCN(C)C)ccc1Nc1nc(Cc2c(Cl)cccc2Cl)cc2cc[nH]c(=O)c12` [Example 28, 4-{[3-(2,6-dichlorobenzyl)-8-oxo-7,8-dihydro-2,7-naphthyridin-1-yl]amino}-N-[4-(dimethylamino)butyl]-3-methoxybenzamide], for which the Ki amounted to 36 nM.

Regarding `COc1cc(C(=O)N2CCNCC2)ccc1Nc1cc(Cc2c(Cl)cccc2Cl)nc2cc[nH]c(=O)c12` [Example 29, 2-(2,6-dichlorobenzyl)-4-{[2-methoxy-4-(piperazin-1-ylcarbonyl)phenyl]amino}-1,6-naphthyridin-5(6H)-one], the Ki amounted to 11 nM.

For the compound `COc1cc(C(=O)NCCCCN(C)C)ccc1Nc1cc(Cc2c(Cl)cccc2Cl)nc2cc[nH]c(=O)c12` [Example 30, 4-{[2-(2,6-dichlorobenzyl)-5-oxo-5,6-dihydro-1,6-naphthyridin-4-yl]amino}-N-[4-(dimethylamino)butyl]-3-methoxybenzamide], the Ki is 20 nM.

Consider `COc1cc(N2CCNCC2)ccc1Nc1cc(Cc2ccccc2Cl)nc2cc[nH]c(=O)c12` [Example 31, 2-(2-chlorobenzyl)-4-{[2-methoxy-4-(piperazin-1-yl)phenyl]amino}-1,6-naphthyridin-5(6H)-one], for which the Ki came to 7 nM.

Values taken from patent US20140171429A1, “BICYCLIC INHIBITORS OF ALK” (ABBVIE INC., priority 2011, published 2014).
